Laboratory results from US10806717B2, “Methods and compositions for improving cognitive function” (The Johns Hopkins University, priority 2013, dated 2020).
“Also recorded” adds a separate entry of the source.

What was measured:
aMCI subjects = assay: Explicit 3-alternative forced choice task (lure stimuli); type: in vivo, human
Method: As described above, the drug treatment period is the two weeks preceding Visit 1 or 2 (with the two week period preceding the other Visit being the placebo phase). […]
The activity of the subject's medial temporal lobe is measured by functional MRI during the subject's participation in an explicit 3-alternative forced choice task, where participants view novel, repeated and similar (“lure”) stimuli. The Psychophysics Toolbox extensions in Matlab 7.0 (The MathWorks, Natick, Mass.) is used for stimulus presentation and behavioral data collection. Stimuli are color photographs of common objects. Each participant undergoes a series of testing runs during the functional imaging sessions, each run consisting of a mix of three types of image pairs: similar pairs, identical pairs and unrelated foils. These image pairs are fully randomized throughout the run and presented individually as a series of images (see FIG. 10A). Participants are instructed to make a judgment as to whether each object seen is new, old or similar. Of critical interest are the participants' responses when presented with the second of the pair of similar objects (the “lure”; see FIG. 10B). The correct identification by the subject of lure stimuli as “similar,” provides behavioral evidence of pattern separation, i.e., the separation of similar experiences into distinct non-overlapping representations. […]
As described above, the drug treatment period is the two weeks preceding Visit 1 or 2 (with the two week period preceding the other Visit being the placebo phase). […] For the subjects receiving the 62.5 mg BID drug treatment, a quarter of a scored 250 mg tablet of levetiracetam is used to achieve a dose of 62.5 twice a day, i.e., 125 mg/day which is approximately 1.5 mg/kg/day.
The activity of the subject's medial temporal lobe is measured by functional MRI during the subject's participation in an explicit 3-alternative forced choice task, where participants view novel, repeated and similar (“lure”) stimuli. […]

[1] = tested on: reelin in Entorhinal Cortex (EC2); assay: In situ hybridization of reelin mRNA after chronic levetiracetam; type: in vivo, rat; conditions: levetiracetam 10 mg/kg/day, osmotic minipumps, four weeks (28 days), aged-impaired rats; vs AI-VEH p=0.033
[2] = target: synaptic vesicle protein 2A (SV2A) (Homo sapiens, UniProt Q7L0J3); conditions: specific site in the CNS; cited from earlier work
Chain of synaptic vesicle protein 2A (SV2A) (Q7L0J3 whole entry, species assumed): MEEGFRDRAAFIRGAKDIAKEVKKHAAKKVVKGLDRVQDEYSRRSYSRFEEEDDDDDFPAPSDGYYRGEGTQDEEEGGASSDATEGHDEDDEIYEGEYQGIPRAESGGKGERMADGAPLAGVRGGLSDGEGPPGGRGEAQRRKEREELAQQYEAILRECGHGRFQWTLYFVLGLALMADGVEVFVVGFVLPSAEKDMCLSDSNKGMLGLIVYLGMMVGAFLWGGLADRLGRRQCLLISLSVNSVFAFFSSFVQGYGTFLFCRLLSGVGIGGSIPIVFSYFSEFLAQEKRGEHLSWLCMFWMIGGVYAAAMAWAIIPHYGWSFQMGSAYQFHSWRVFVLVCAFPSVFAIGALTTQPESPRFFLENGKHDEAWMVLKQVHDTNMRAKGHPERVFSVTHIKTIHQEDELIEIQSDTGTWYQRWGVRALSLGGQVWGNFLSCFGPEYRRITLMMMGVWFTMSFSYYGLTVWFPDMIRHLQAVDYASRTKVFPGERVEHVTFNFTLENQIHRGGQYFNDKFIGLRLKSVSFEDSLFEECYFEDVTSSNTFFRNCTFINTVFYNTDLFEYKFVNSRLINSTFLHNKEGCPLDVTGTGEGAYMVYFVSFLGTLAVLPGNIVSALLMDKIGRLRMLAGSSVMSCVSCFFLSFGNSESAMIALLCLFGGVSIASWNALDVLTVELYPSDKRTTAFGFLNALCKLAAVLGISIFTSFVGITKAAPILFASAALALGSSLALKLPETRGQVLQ

CC[C@@H](C(N)=O)N1CCCC1=O [levetiracetam, (2S)-2-(2-oxopyrrolidin-1-yl)butanamide]
performance in the memory task (similar vs old responses to lures) (aMCI subjects; levetiracetam 62.5 mg BID for two weeks vs placebo, p=0.041): improves significantly
performance in the memory task (similar vs old responses to lures) (aMCI subjects; levetiracetam 125 mg twice a day for two weeks vs placebo, p=0.039): improves significantly
performance in the memory task (similar vs old responses to lures) (aMCI subjects; levetiracetam 250 mg BID for two weeks vs placebo, p=0.2396): does not significantly improve
reelin (mRNA expression) in entorhinal cortex [1]: restores the levels of reelin; also recorded: significantly increased the expression of reelin
binding to SV2A [2]: binds
